Tests used:
Assay type in all cases: cell-based, human
[1] = tested on: HeLa cells; test: Cytotoxicity: lactate dehydrogenase assay; details: 24 h, compared to vehicle-treated cells
Experimental: Lactate dehydrogenase (LDH) is a soluble cytosolic enzyme that catalyzes the interconversion of lactate and pyruvate. Cells release LDH during injury or cell damage, following the loss of membrane integrity consequential from either apoptosis or necrosis. LDH activity can therefore be used as an indicator of cell membrane integrity and serves as a general mean to assess for cytotoxicity resulting from exposure to chemical compounds. Cells were seeded in 96 well plates at a cell density of 5,000 cells per well (incubated at 37°C at 5% CO2). After 24 h, cells were exposed to 0.1–25 μM sulphamoylated 2ME2 analogues including vehicle-treated controls and incubated for 24 h at 37°C. Subsequently, the 200 μl medium was transferred and centrifuged at 5,000 rpm for 10 min. Supernatant (10 μl) was then transferred to an optimally clear 96 well plate. LDH reaction mix (100 μl mixed according to the supplier's manual instructions) was added to the medium. After 90 min incubation at room temperature, the absorbance was read at 460 nm (reference wavelength of 630 nm) with an ELx800 Universal Microplate Reader from Bio-Tek Instruments Inc. (Vermont, United States of America).

[2] = tested on: HeLa cells; test: Cytochrome c release (FlowCellect, flow cytometry); details: 0.5 μM analogues (2-methoxyestradiol-bis-sulphamate 0.55 μM), 24 h
Experimental: (§1) This kit utilizes a unique set of buffers that selectively permeabilizes the […] without affecting the mitochondrial membrane. […] Cells (500,000) were seeded with an overnight attachment policy. After 24 h of exposure to 0.5 μM of the sulphamoylated 2ME2 analogues, cells were detached using trypsin and centrifuged at 13,000×g. Cells (500,000) were resuspended in PBS, centrifuged and resuspended in permeabilization buffer (according to supplier's instructions) for 10 min on ice. Subsequently cells were centrifuged, resuspended in 100 µl fixation buffer (according to supplier's instructions) for 20 min at room temperature, centrifuged again and resuspended in blocking buffer (150 µl). After another centrifugation step, cells were centrifuged and resuspended in blocking buffer (twice). Anti-cytochrome c-FITC (10 µl) was added to each sample and samples were incubated for 30 min at room temperature. Cells were centrifuged and blocking buffer (100 µl) was added. After centrifugation, blocking buffer (200 µl) was added to the samples for analysis via flow cytometry (FC500 System flow cytometer, Beckman Coulter South Africa (Pty) Ltd). Cells presenting with cytochrome c release were detected in the fluorescein isothiocyanate (FITC) channel (FL1) showing diffused green fluorescence. Data from at least 10 000 cells were analyzed by means of Cyflogic version 1.2.1 software (Pertu Therho, Turko, Finland).

[3] = tested on: MDA-MB-231 cells; test: Cytochrome c release (FlowCellect, flow cytometry); details: MDA-MB-231, 0.5 μM analogues (2-methoxyestradiol-bis-sulphamate 0.55 μM), 24 h
Experimental: as §1

[4] = tested on: HeLa cells; test: Cell number determination by crystal violet staining; details: for cell growth: 24 h; for concentration that significantly inhibits HeLa proliferation: 24 h of exposure
Experimental: Crystal violet is a method used to determine the number of cells by staining the deoxyribonucleic acid (DNA). Gillies et al. (1986) used crystal violet to quantify cell number in monolayer cultures as a function of the absorbance of the dye taken up by the cells. A dose-dependent study was chosen with a concentration range of 0.1–25 μM since it was previously observed in our laboratory that this concentration series exerts antiproliferative activity in HeLa cells. Exponentially growing HeLa cells were seeded in 96 well tissue culture plates at a cell density of 5,000 cells per well. Cells were incubated at 37°C in a humidified atmosphere containing 5% CO2 for 24 h to allow for attachment. To establish the starting number of cells, a baseline determination was conducted before exposure. Subsequently, the medium was discarded and cells were exposed to the sulphamoylated 2ME2 analogues at a concentration series of 0.1–25 μM for the 24 h at 37°C. Vehicle-treated controls were also included. Cells were fixed with 100 µl of 1% gluteraldehyde (incubation for 15 min at room temperature). Gluteraldehyde was discarded and cells were stained using 100 µl 0.1% crystal violet (incubated at room temperature for 30 min). Excedent crystal violet was discarded and the 96 well plate was submersed under running water. Cells were solubilized using 200 µl 0.2% Triton X-100 and incubated at room temperature for 30 min. Solution (100 µl) was transferred to a new microtitre plate. Afterwards, the absorbance was determined at 570 nm using an ELx800 Universal Microplate Reader available from Bio-Tek Instruments Inc. (Vermont, United States of America).

[5] = tested on: HeLa cells; test: Cell morphology by transmission electron microscopy; details: 24 h; for cell shrinkage (TEM): compared to vehicle-treated cells
Experimental: The in vitro influence of ESE-15-one, EMBS and ESE-16 on cell morphology was determined after exposure for 24 h using transmission electron microscopy (TEM). […] After each fixation step the samples were rinsed 3 times in 0.0075 M sodium phosphate buffer (pH 7.4). Samples were dehydrated using increasing concentrations of ethanol (30%, 50%, 70%, 90%, and 3×100%) and embedded in Quetol resin, sectioned with a microtome and placed on copper discs. Sections were contrasted with 4% aqueous uranyl acetate and Reynolds' lead citrate and viewed with a JOEL JEM 2100F transmission electron microscope (Electron Microscopy Unit, University of Pretoria, South Africa).

[6] = tested on: caspase-8; test: FLICE/caspase 8 colorimetric assay; details: 0.5 μM, 24 h
Experimental: Possible activation of caspase 3, -6 and -8 was investigated by means of caspase 3, caspase 6 and FLICE/caspase 8 colorimetric kits, respectively. Cells (1,000,000) were seeded with an overnight attachment policy. After 24 h of exposure to 0.5 μM of the sulphamoylated 2ME2 analogues, cells were detached with trypsin and centrifuged at 13,000× g. Cells (500,000) were resuspended in 50 µl of chilled cell lysis buffer and incubated on ice for 10 min. Cells were centrifuged at 10,000×g for a min. Supernatant was transferred to a fresh tube and put on ice. After determination of the protein concentration using the bicinchoninic acid (BCA) protein assay (Thermo Fisher Scientific, Johannesburg, South Africa), 100 µg protein/50 µl cell lysis buffer was mixed with 50 µl 2X reaction buffer (containing 10 mM Dithiothreitol (DTT)). Ac-Asp-Glu-Val-Asp-p-nitroanilide (Ac-DEVD-pNA) (5 µl of 4 mM) (caspase-3-specific substrate), or 5 µl 4 mM […] (Ac-VEID-pNA) (caspase-6-specific substrate), or 5 µl 4 mM Ac-Ile-Glu-Thr-Asp-p-nitroanilide (Ac-IETD-pNA) (caspase-8-specific substrate) was added and the mixture was incubated at 37°C for 120 min (200 µM final concentration). Absorbance was determined at 405 nm on the ELx800 Universal Microplate Reader available from Bio-Tek Instruments Inc. (Vermont, United States of America).

[7] = 0.5 µM, compared to vehicle-treated cells

Structure (SMILES)	LDH levels / LDH release [1]	Cytochrome c in cytoplasm (cells with cytochrome c release) [2]	Cytochrome c in cytoplasm (cells with cytochrome c release) [3]	cell growth ([4]; 0.1 µM) [%]	cell growth [4, 7] [%]	cell growth ([4]; 5 µM and 10 µM)	concentration that significantly inhibits HeLa proliferation [4] [µM]	cell debris (TEM) [5]	vacuoles (TEM) [5]	cell shrinkage (TEM) [5]	caspase-8 activity increase compared to vehicle-treated cells [6] [fold]	apoptotic bodies (TEM) [5]
CCc1cc2c(cc1OS(N)(=O)=O)CC[C@@H]1C2CC[C@]2(C)[C@@H](OS(N)(=O)=O)CC[C@@H]12 (stereo partly drawn) [EMBS, (8R, 13S, 14S, 17S)-2-ethyl-13-methyl-7,8,9, 11, 12,13, 14, 15, 16, 17-decahydro-6H-cyclopenta [a] phenanthrane-3, 17-diyl bis (sulphamate)]	No statistically significant increase in LDH levels	21–23%	21–23%	92.32	40.01	slight decrease in cell growth	0.5	Cell debris was observed	vacuoles	shrunken	2.6	
CCc1cc2c(cc1OS(N)(=O)=O)CC[C@@H]1[C@@H]2CC[C@]2(C)C(=O)C=C[C@@H]12 [ESE-15-one, 2-Ethyl-3-O-sulphamoyl-estra-1,3,5 (10) 15-tetraene-3-ol-17one]	No statistically significant increase in LDH levels	35%	34%	80.31	40.87	slight decrease in cell growth	0.5		vacuoles	shrunken	1.7	Apoptotic bodies were observed
